Reference: patent US20250057859A1, “CANNABICHROMENEQUINONE AND ANALOGUES THEREOF, AND METHOD OF USING COMPOSITIONS THEREOF AS ANTI-INFLAMMATORY AGENTS” (Juva Life, Inc., priority 2021, published 2025)
Where two headings read alike, the source gives them in different places.

What was measured:
[1] = system: IL-6; test: IL-6 secretion assay in human PBMCs (LPS-stimulated, ELISA); type: cell-based; details: PBMC, LPS 100 ng/mL 6 hr, read-out: IL6 inhibitory activity IC50
Description: Fetal bovine serum (FBS) was obtained from ThermoFisher (Cat #16000044). • Other reagents: 96well TC plates were obtained from ThermoFisher (Cat #07-2000-90). LPS was obtained from Sigma (Cat #L3024).
IL-6 was assessed using a standard ELISA protocol. Cryopreserved PBMCs were thawed in a water bath and transferred to 50 mL polypropylene tubes. The cells were washed two times with 25 mL of RPMI medium supplemented with 5% of heat-inactivated FBS and re-suspended at a density of 4.5^10^6 cells/mL. The cells were plated into 96 well TC late (100 uL/well). Serially diluted compound was added to the cells in duplicate wells for each concentration. Control wells received DMSO only (0.3% final). The cells were pre-incubated with compound for 1 hr. After pre-incubation, the cells were stimulated by LPS (100 ng/mL) for 6 hr. Control samples with and without LPS in the absence of compound were assembled in each test plate. IL-6 was detected in media supernatants by using a sandwich anti-IL-6 ELISA kit (BD Biosciences) according to protocol provided by the manufacturer. ELISA readout (optical density at 450 nm) is commensurable with the amount of IL-6 produced by the cells. Assay window was determined in each experiment by comparing average OD450 values in stimulated and un-stimulated samples in the absence of compound. ELISA calibration was performed in each detection plate using serially diluted recombinant human IL-6, to ensure that OD450 values for all test samples were within linear range of detection.%-Inhibition by compound was calculated using following equation:
[formula] • where OD450100% is optical density in control samples stimulated with LPS without compound, OD4500% is optical density in unstimulated control samples, and OD450compound is optical density in a sample stimulated with LPS in the presence of compound.
(§1) The calculated %-Inh values were plotted against compound concentration. To determine IC50 values, dose-response curves were fitted by a 4-parameter sigmoid inhibition model using XLFit® software (IDBS).

[2] = target: T1, recombinant human LOX-5 (Homo sapiens, UniProt P09917); test: Biochemical LOX-5 assay
T1 construct: expressed in insect cells (Amino Acids 1-674) was obtained from Cayman; purchased Cayman 60402; host or cells: insect cells
T1 sequence (P09917 1-674): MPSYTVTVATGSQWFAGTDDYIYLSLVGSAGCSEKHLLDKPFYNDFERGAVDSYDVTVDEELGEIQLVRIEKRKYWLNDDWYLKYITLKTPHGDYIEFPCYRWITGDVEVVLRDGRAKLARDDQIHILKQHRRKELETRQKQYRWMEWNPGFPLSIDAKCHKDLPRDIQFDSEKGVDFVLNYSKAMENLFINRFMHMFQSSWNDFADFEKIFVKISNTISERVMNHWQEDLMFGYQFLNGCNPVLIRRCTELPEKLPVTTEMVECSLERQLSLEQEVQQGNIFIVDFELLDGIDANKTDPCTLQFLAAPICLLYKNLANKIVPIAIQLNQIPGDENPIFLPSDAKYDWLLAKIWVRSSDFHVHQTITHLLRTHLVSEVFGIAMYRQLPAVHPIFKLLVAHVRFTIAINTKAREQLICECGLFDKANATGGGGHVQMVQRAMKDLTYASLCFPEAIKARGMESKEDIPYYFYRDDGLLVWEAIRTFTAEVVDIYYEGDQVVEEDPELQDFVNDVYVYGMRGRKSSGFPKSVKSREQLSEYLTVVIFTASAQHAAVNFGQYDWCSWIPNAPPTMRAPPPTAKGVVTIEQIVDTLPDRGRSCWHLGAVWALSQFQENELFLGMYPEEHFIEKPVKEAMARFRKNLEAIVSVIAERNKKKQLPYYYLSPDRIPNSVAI
Source text: • Active recombinant human LOX-5 protein expressed in insect cells (Amino Acids 1-674) was obtained from Cayman (Cat #60402) • 2′,7′-dichlorodihydrofluorescein diacetate, H2DCFDA, was obtained from Sigma (Cat #96883) • Arachidonic acid, AA, was obtained from Sigma (Cat #A3611) • Other reagents: black 384 well assay plates were obtained from Corning (Cat #3820). • Equipment: Synergy Neo2 Multi-mode plate reader (Biotek), Labcyte 550 acoustic dispenser (Labcyte), Biomek FX robotic dispenser (Beckman Coulter), Sorvall Legend RT centrifuge (Kendro).
The LOX-5 assay was performed in assay buffer comprising: 50 mM Tris (pH 7.5), 2 mM EDTA, 2 mM CaCl2, 3 uM AA, 10 uM ATP, 10 uM H2DCFDA, and recombinant enzyme (50mU per 20 ul reaction, as defined by manufacturer). Serially diluted compounds were prepared in DMSO in Echo qualified 384 well plates. An assay buffer was then prepared without AA and ATP supplemented with 20 uM H2DCFDA. 10 μL of the supplemented buffer was dispensed into control (no enzyme) wells in the black 384well assay plate. Next, a 2× enzyme solution was prepared, comprising 100 mU LOX-5 enzyme in the supplemented assay buffer. 10 uL of the 2× enzyme solution was then dispensed into test wells in the black 384well assay plate. Serially diluted compounds were added to the assay plate by acoustic dispensing (Labcyte 550). Control wells received DMSO only.
Next, the 2× substrate was prepared to comprise 6 uM arachidonic acid and 20 uM ATP in the assay buffer. 10 μL of the 2× substrate was then added to all wells in the assay plate. The plate was incubated for 20 min. The plate was read on Synergy Neo2 in fluorescence mode: excitation 485 nm, emission 530 nm. % inhibition and the resulting IC50 was calculated for the compound using the following equation:
[formula] • where RFU100% is fluorescence in control samples without compound, RFU0% is fluorescence in control samples without LOX-5, and RFUcompound fluorescence in a sample with compound.
as §1

[3] = recombinant enzyme, 3 uM AA, read-out: 5-Lox inhibitory activity IC50

SMILES | IC50 [1] | IC50 [2, 3] | IC50 [2]
CCCCCc1cc(O)c2c(c1O)OC(C)(CCC=C(C)C)C=C2 (stereo not shown) [Formula XXII] | > 10000 nM | 250 nM | –
CCCCCC1=CC(=O)C2=C(O[C@](C)(CCC=C(C)C)C=C2)C1=O [Formula XXVI] | 1070 nM | 230 nM | –
CCCCCC1=C(NCC)C(=O)C2=C(OC(C)(CCC=C(C)C)C=C2)C1=O (stereo not shown) [Formula XXVIII] | > 10000 nM | > 10000 nM | –
CC(C)=CCCC1(C)C=CC2=C(O1)C(=O)c1ccccc1C2=O (stereo not shown) [Formula XXVII] | > 10000 nM | – | > 10000 nM
CCCCCc1cc(OC)c2c(c1OC)OC(C)(CCC=C(C)C)C=C2 (stereo not shown) [Formula XXIV] | 14400 nM | > 10000 nM | –
CCCCCC1=CC(=O)C2=C(OC(C)(CCC=C(C)C)C=C2)C1=O (stereo not shown) [Formula II] | 1200 nM | 270 nM | –
CCCCCc1cc(OC(C)=O)c2c(c1OC(C)=O)OC(C)(CCC=C(C)C)C=C2 (stereo not shown) [Formula XXIII] | 8700 nM | 2710 nM | –
CCCCCC1=C(NCCC)C(=O)C2=C(OC(C)(CCC=C(C)C)C=C2)C1=O (stereo not shown) [Formula XXV] | 9300 nM | 1180 nM | –
